Experiment: gradient 5% acetonitrile 3 min, to 50% in 2 min, to 85% in 15 min, held 3 min, 100 µL/min
Details: column: Zorbax Extend-C18 2.1 x 50 mm; eluents: water / acetonitrile, 0.1% formic acid
How it was run: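 Over 3 months, pure standards in mixtures of ~100 molecules were run by HPLC coupled to a quadrupole time-of-flight mass spectrometer in positive and negative ionization mode. The column was a Zorbax Extend-C18 (2.1 × 50 mm, 1.8 μm) at 100 μL/min, eluted with water and acetonitrile each holding 0.1% formic acid, with 40 μL dead and 900 μL dwell volumes. Retention time was determined from adduct peaks chosen by software and checked manually.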

Row | Compound | RP-LC retention time [s]
1 | COc1cccc(CNC(=O)CN2C(=O)NC(c3ccc(Cl)cc3)C3=C2COC3=O)c1 (centres undefined) | 764
2 | CCC(C)Nc1nc(N(C)C)nc(-n2cnc(SC)n2)n1 (centres undefined) | 942
3 | Cc1noc(COC2CCCN(C(=O)C3(c4ccccc4)CC3)C2)n1 (centres undefined) | 791
4 | COc1ccc(N2CCN(c3cc(SCC(=O)Nc4ccc(C)cc4F)ncn3)CC2)cc1 | 1110
5 | Cc1ccsc1CN1CCc2oc(C)c(C(=O)N3CCOCC3)c2C1 | 536
6 | O=C(NC1(c2nc(-c3ccccc3)no2)CCCCC1)c1ccc(C(F)(F)F)cc1 | 1250
7 | CN1C(=O)c2cccnc2Sc2cc(C(=O)NCc3ccc(F)cc3)ccc21 | 765
8 | CCc1nc(-c2cc(S(=O)(=O)N3CCC(C(=O)NCc4ccc(C)o4)CC3)c(C)s2)no1 | 969
9 | CCCCN(C(=O)c1nc(C)n(C2CCN(S(C)(=O)=O)CC2)c1C)c1ccccc1 | 666
10 | Cn1cccc1-c1cc2n(n1)CCC(=O)N2CCCC(=O)NCc1cccc(Cl)c1 | 804
11 | Cc1nc(Nc2ccccn2)sc1C(=O)N1CCN(c2ccccc2F)CC1 | 841
12 | Cc1ccc(F)cc1NC(=O)c1csc(-c2cn(C)c3ncccc23)n1 | 1130
13 | CCOC(=O)c1ccc(NC(=O)CN2N=NC3C(=O)N(c4ccc(F)cc4)C(=O)C32)cc1 (centres undefined) | 812
14 | CCc1ccc(C(C)NC(=O)c2ccnc3c(NC(C)=O)cccc23)cc1 (centres undefined) | 896
15 | COc1ccc(-n2nc(N3CCCC(C(=O)NCc4cccc(OC)c4)C3)ccc2=O)cc1 (centres undefined) | 763
16 | Cc1cnc(NC(=O)C2CN(c3nc4ccccc4s3)C2)s1 | 700
17 | COc1ccc(Cl)cc1S(=O)(=O)N1CCCC(C(=O)NCc2ccccn2)C1 (centres undefined) | 660
18 | O=C(NCC1CCOCC1)Nc1ccccc1Br | 740
19 | O=C(NC1CCCCCC1)c1cccnc1N1CCNC(c2ccccc2)C1 (centres undefined) | 656
20 | Cn1cccc1C(=O)C(=O)NCc1cccc(Br)c1 | 918
21 | Cc1cc(C)n(-c2cc(N3CCCC(C(=O)Nc4nccs4)C3)ncn2)n1 (centres undefined) | 749
22 | Cc1sc(C)c(S(=O)(=O)NCc2ccccc2)c1-c1cc(C(F)(F)F)on1 | 1140
23 | CCOC(=O)c1cc(S(=O)(=O)N2CCCC2C(=O)N(CC)c2ccc(OC)cc2)cn1C (centres undefined) | 892
24 | CCN(CC)S(=O)(=O)c1ccc(-c2c(C)noc2C)cc1 | 936
25 | CCn1nc(C(=O)Nc2nc3c(SC)cccc3s2)cc1C | 994
26 | COc1cccc(S(=O)(=O)N2C[C@@H]3C[C@H](NC(=O)c4cccs4)[C@H]2C3)c1 | 854
27 | O=S(=O)(c1cc(-c2noc(C3CCCC3)n2)cs1)N1CCC2(CC1)OCCO2 | 1140

Row | Compound | RP-LC retention time [s]
28 | CN1CCN(c2ccc(-c3nc(-c4cccc(F)c4)no3)cn2)CC1 | 685
29 | COc1cccc(Sc2ccc(N3CCCC(C(=O)NCc4ccc5c(c4)OCO5)C3)nn2)c1 (centres undefined) | 826
30 | Cc1ccc(NC(=O)C2CCN(C(=O)c3ncn4c3COC(c3ccc(F)cc3)C4)CC2)cc1 (centres undefined) | 804
31 | Cc1ccsc1C(=O)N1CCOc2ccc(N3CCOCC3)cc2C1 | 762
32 | Cc1ccc(NC(=O)N2CC(N(Cc3ccncc3)CC(C)C)C2)cc1F | 705
33 | Cc1ccc(-c2cc3c4nnc(SCC(=O)NCCC(C)C)n4ccn3n2)cc1C | 942
34 | CCc1nc(C)c(C)c2nn(Cc3cccc(C#N)c3)c(=O)n12 | 919
35 | COC(=O)c1cccc(C(=O)Nc2ccc(C)c(C)c2)n1 | 910
36 | CCOCCOC(=O)C1=C(C)NC2=C(C(=O)C(C(=O)OC)C(C)C2)C1c1cccc(Cl)c1 (centres undefined) | 931
37 | CCn1c(=O)c(C(=O)NCc2ccc(C)o2)nc2cccnc21 | 766
38 | O=C(NCCCN1CCN(Cc2ccccc2)CC1)c1cn2c3c(ccc(Cl)c3c1=O)OCC2 | 634
39 | O=C1c2ccccc2C(=O)c2c(NCCc3ccc(O)cc3)ccc(NCCc3ccc(O)cc3)c21 | 1180
40 | Cc1nc(C)c(C(=O)Nc2ccc(C)c(F)c2)s1 | 860
41 | Cc1cc(N)n(Cc2ccccc2)n1 | 569
42 | CC1(C)CC(=O)C2=C(C1)N(Cc1cccnc1)C(=O)C2(NC(=O)C1CCCCC1)C(F)(F)F (centres undefined) | 659
43 | CC1(C)C(=O)N(CC(=O)Nc2ccc(F)c(Cl)c2)c2ccccc21 | 966
44 | CN(C)CCNC(=O)Cc1cccn1-c1ccc(Cl)cc1 | 618
45 | CC1=NS(=O)(=O)N(Cc2ccccc2)C=C1C(=O)OCc1ccc(F)cc1F | 1090
46 | CN1C(=O)CCc2cc(NC(=O)c3ccnn3C)ccc21 | 645
47 | CCn1nccc1C(=O)Nc1cccc(-c2nnc3n2CCCC3)c1 | 644
48 | COCCN1C(=O)[C@H]2CN(Cc3ccc(OC)c(OC)c3Cl)C[C@H]2C1=O | 620
49 | O=C(Cn1c(=O)c(=O)n(Cc2ccc(Cl)cc2)c2ccccc21)N1CCN(c2ccccn2)CC1 | 654
50 | CCCNC(=O)Cn1cnc2sc(C(=O)NC3CCCC(C)C3C)c(C)c2c1=O (centres undefined) | 857
51 | COCCN1C(=O)[C@H]2CN(Cc3cccc(OC(F)(F)F)c3)C[C@H]2C1=O | 706
52 | COc1ccccc1CNC(=O)C1CCC(=O)N1S(=O)(=O)c1ccc(C)c(C)c1 (centres undefined) | 913
53 | CCCNC(=O)c1ncn2c1C(=O)N(C1CC1)C(C)(C(=O)NCc1ccc(F)cc1)C2 (centres undefined) | 692
54 | Cc1noc(-c2ccc(=O)n(C(C)C)n2)n1 | 715

Results, then the molecule that gave them:

Row | RP-LC retention time [s] | Compound
55 | 892 | CCc1ccc2c(c1)c(=O)c(C(=O)c1ccccc1)cn2CC(=O)Nc1cccc(Cl)c1
56 | 572 | O=C(Nc1ccc2c(c1)OCCO2)N1CCC2(CC1)CC(N1CCOCC1)CCO2 (centres undefined)
57 | 932 | CCn1cc(-c2ccc(C)cc2)cc1C(=O)N1CCOCC1
58 | 934 | CCOC(=O)COc1cccc2c1CCN(Cc1ccc(Cl)cc1)C2=O
59 | 1190 | O=C(NCc1ccccc1C(F)(F)F)c1ccnc(N2CCCCC2)n1
60 | 844 | COc1ccc(CC(=O)Nc2ccc3c(c2)Sc2ncccc2C(=O)N3C(C)C)cc1
61 | 957 | COc1ccc(NC(=O)C2CCN(S(C)(=O)=O)c3cc(C)ccc3O2)cc1Cl (centres undefined)
62 | 562 | CC(C)N1CCN(C(=O)c2ccc(-c3ccnc(N4CCCC4)n3)cc2)CC1
63 | 654 | CC(C)c1nc2cc3c(cc2n1CC(=O)Nc1ccc2c(c1)OCCO2)OCCO3
64 | 710 | Cc1ccc(NC(=O)Cn2cnc3c(c2=O)CCCC3)cc1
65 | 1060 | CCCCN1C(=O)C(C)(C(=O)Nc2ccc(C)cc2)Oc2cccnc21 (centres undefined)
66 | 1370 | Cc1ccc2nc(N3CCN(C(=O)C(C)(C)C)CC3)c(-c3noc(-c4ccccc4)n3)cc2c1
67 | 520 | Cc1nc([C@H]2CCN(Cc3ccc4[nH]ccc4c3)C[C@H]2N(C)C)n[nH]1
68 | 672 | CCC(C)NC(=O)CCNc1c(-c2ccc(C)cc2)nc2cnccn12 (centres undefined)
69 | 1220 | Cc1ccc(C)c(-c2cc3c(=O)n(Cc4nc(-c5ccccc5Cl)no4)ncn3n2)c1
70 | 884 | COC(=O)c1ccccc1NC(=O)Cn1ccn2nc(-c3ccccc3)c(CO)c2c1=O
71 | 1040 | Cn1cc(C(=O)Nc2ccc3c(c2)CCC3)c(S(=O)(=O)N2CCSCC2)n1
72 | 543 | O=C(C1CCN(c2nnc3ccccn23)CC1)N1CCN(c2ccccn2)CC1

Row | RP-LC retention time [s] | Compound
73 | 859 | O=C(Nc1ccccc1)N1CCc2nc(-c3ccccc3)ncc2C1
74 | 595 | CC(C)S(=O)(=O)N1CCCC(Cn2cc(COc3ccc4c(c3)CCC4)nn2)C1 (centres undefined)
75 | 721 | CCn1ccc2c(cc(C(=O)Nc3c(C)cccc3C)n2C)c1=O
76 | 579 | CCOC(=O)C(=O)NCc1n[nH]c(=O)c2ccccc12
77 | 649 | CCOc1ccc(C2C(C(=O)O)c3ccccc3C(=O)N2CCN2CCOCC2)cc1 (centres undefined)
78 | 589 | COc1ccc(-c2nc(N3CCN(C4CCCCC4)CC3)c3ccccc3n2)cc1
79 | 842 | N#Cc1cccc(Cn2cc(S(=O)(=O)N3CCCCC3)ccc2=O)c1
80 | 684 | Cc1cc(=O)n(CC(=O)NCc2ccccc2)c(N(C)Cc2ccccc2)n1
81 | 837 | CC(=O)c1ccc(NC(=O)c2cnc(-c3ccc(F)cc3)nc2-c2ccncc2)cc1
82 | 820 | CCOCCCNC(=O)CN1c2ccc(F)cc2-c2ccccc2S1(=O)=O
83 | 981 | CCc1cccc(-n2nnnc2N2CCN(C(=O)Nc3ccc(C)c(F)c3)CC2)c1
84 | 769 | CC(=O)Nc1cccc(-c2nc(-c3ccc4oc(-c5ccccc5)nc4c3)no2)c1
85 | 631 | CS(=O)(=O)N1CCC(C(=O)Nc2ccc3c(c2)N(C(=O)C2CCCO2)CC3)CC1 (centres undefined)
86 | 603 | Cc1ccnc(NS(=O)(=O)c2ccc(NC(=O)C3=COCCO3)cc2)n1
87 | 942 | COc1ccc(COc2cc3oc(=O)c4cc(C(C)O)ccc4c3cc2OC)cc1 (centres undefined)
88 | 552 | c1ccc(OCc2cn(CCC3CCCCN3)nn2)cc1 (centres undefined)
89 | 587 | CN(C)c1ncncc1N1CCC(C(=O)NCc2ccc3c(c2)OCO3)CC1
